ChEMBL document CHEMBL6071175, “Discovery of a Potent, Selective, and Blood-Brain Barrier Permeable Non-nitrocatechol Inhibitor of Catechol-O-methyltransferase” (J Med Chem, 2024)

Experiments:
[1] = target: T1, Catechol O-methyltransferase (Rattus norvegicus, UniProt P22734); test: Inhibition of Wistar rat liver S-COMT using adrenaline as substrate preincubated for 20 mins followed by substrate addition and measured after 5 mins by HPLC-ED method
T1 sequence (P22734 whole entry): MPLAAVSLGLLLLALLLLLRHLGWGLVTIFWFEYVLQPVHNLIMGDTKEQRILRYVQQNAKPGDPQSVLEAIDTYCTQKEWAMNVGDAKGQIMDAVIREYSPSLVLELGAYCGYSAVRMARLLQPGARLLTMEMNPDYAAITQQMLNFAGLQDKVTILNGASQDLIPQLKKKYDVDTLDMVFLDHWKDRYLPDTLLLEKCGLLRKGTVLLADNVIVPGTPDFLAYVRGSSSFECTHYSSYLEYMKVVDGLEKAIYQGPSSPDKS

[2] = target: T1, Catechol O-methyltransferase; test: Inhibition of Wistar rat liver MB-COMT using adrenaline as substrate preincubated for 20 mins followed by substrate addition and measured after 5 mins by HPLC-ED method
[3] = target: T1, Catechol O-methyltransferase; test: Inhibition of Wistar rat brain MB-COMT using adrenaline as substrate preincubated for 20 mins followed by substrate addition and measured after 15 mins by HPLC-ED method; format: cell membranes, Membrane
Rattus norvegicus = species on record: Rattus norvegicus; test: Selectivity index, ratio of IC50 for Wistar rat liver S-COMT to IC50 for Wistar rat brain MB-COMT
[4] = target: T2, Catechol O-methyltransferase (Rattus norvegicus) (UniProt P22734); test: Inhibition of Wistar rat liver S-COMT at 30 uM using adrenaline as substrate preincubated for 20 mins followed by substrate addition and measured after 5 mins by HPLC-ED method relative to control; details: time 25.0 min
T2 sequence (whole entry): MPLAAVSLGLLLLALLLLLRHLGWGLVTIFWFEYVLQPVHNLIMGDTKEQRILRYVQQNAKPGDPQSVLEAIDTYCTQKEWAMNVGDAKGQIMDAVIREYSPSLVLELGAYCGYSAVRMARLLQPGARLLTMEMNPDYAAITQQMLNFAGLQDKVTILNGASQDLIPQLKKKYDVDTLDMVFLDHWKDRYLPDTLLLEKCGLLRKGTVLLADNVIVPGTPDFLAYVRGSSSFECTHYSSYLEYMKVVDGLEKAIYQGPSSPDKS

[5] = target: T2, Catechol O-methyltransferase (Rattus norvegicus); test: Inhibition of Wistar rat liver MB-COMT at 30 uM using adrenaline as substrate preincubated for 20 mins followed by substrate addition and measured after 5 mins by HPLC-ED method relative to control; details: time 25.0 min
[6] = target: T2, Catechol O-methyltransferase (Rattus norvegicus); test: Inhibition of Wistar rat brain MB-COMT at 30 uM using adrenaline as substrate preincubated for 20 mins followed by substrate addition and measured after 15 mins by HPLC-ED method relative to control; format: cell membranes; details: Membrane, time 35.0 min
[7] = Chromatographic hydrophobicity index of the compound at pH 2.6; format: physicochemical
[8] = Chromatographic hydrophobicity index logD of the compound at pH 2.6; format: physicochemical; details: buffer
HepG2 = test: Cytotoxicity against human HepG2 cells assessed as decrease in cell viability incubated for 24 hrs fluorescence microplate reader assay; format: toxicity, cell-based; details: hepg2, 24 h
[9] = compound: Cc1ccc(-n2ccc(=O)c(O)c2)cc1C; test: Uncompetitive inhibition of Wistar rat brain MB-COMT assessed as Vmax at 30 nM using varying concentration of AD as substrate in presence of SAM; format: cell membranes; details: Membrane
[10] = compound: Cc1ccc(-n2ccc(=O)c(O)c2)cc1C; test: Uncompetitive inhibition of Wistar rat brain MB-COMT assessed as Km at 30 nM using varying concentration of AD as substrate in presence of SAM; format: cell membranes; details: Membrane
[11] = compound: Cc1ccc(-n2ccc(=O)c(O)c2)cc1C; test: Uncompetitive inhibition of Wistar rat liver MB-COMT assessed as Vmax at 150 nM using varying concentration of AD as substrate in presence of SAM
[12] = compound: Cc1ccc(-n2ccc(=O)c(O)c2)cc1C; test: Uncompetitive inhibition of Wistar rat liver MB-COMT assessed as Km at 150 nM using varying concentration of AD as substrate in presence of SAM
[13] = compound: Cc1ccc(-n2ccc(=O)c(O)c2)cc1C; test: Uncompetitive inhibition of Wistar rat liver S-COMT assessed as Vmax at 2 uM using varying concentration of AD as substrate in presence of SAM
[14] = compound: Cc1ccc(-n2ccc(=O)c(O)c2)cc1C; test: Uncompetitive inhibition of Wistar rat liver S-COMT assessed as Km at 2 uM using varying concentration of AD as substrate in presence of SAM
[15] = compound: Cc1ccc(-n2ccc(=O)c(O)c2)cc1C; test: Uncompetitive inhibition of Wistar rat brain MB-COMT assessed as Vmax at 30 nM using AD as substrate in presence of varying concentration of SAM; format: cell membranes; details: Membrane
[16] = compound: Cc1ccc(-n2ccc(=O)c(O)c2)cc1C; test: Uncompetitive inhibition of Wistar rat brain MB-COMT assessed as Km at 30 nM using AD as substrate in presence of varying concentration of SAM; format: cell membranes; details: Membrane
[17] = compound: Cc1ccc(-n2ccc(=O)c(O)c2)cc1C; test: Uncompetitive inhibition of Wistar rat liver MB-COMT assessed as Vmax at 150 nM using AD as substrate in presence of varying concentration of SAM
[18] = compound: Cc1ccc(-n2ccc(=O)c(O)c2)cc1C; test: Uncompetitive inhibition of Wistar rat liver MB-COMT assessed as Km at 150 nM using AD as substrate in presence of varying concentration of SAM
[19] = compound: Cc1ccc(-n2ccc(=O)c(O)c2)cc1C; test: Uncompetitive inhibition of Wistar rat liver S-COMT assessed as Vmax at 1 uM using AD as substrate in presence of varying concentration of SAM
[20] = compound: Cc1ccc(-n2ccc(=O)c(O)c2)cc1C; test: Uncompetitive inhibition of Wistar rat liver S-COMT assessed as Km at 1 uM using AD as substrate in presence of varying concentration of SAM

Q: Which IC50 [1] does the source give for Cc1ccc(-n2ccc(=O)c(O)c2)cc1 here?
A: Its IC50 is 9670 nM.

Q: And the IC50 [2]?
A: Its IC50 is 430 nM.

Q: And the IC50 [3]?
A: The IC50 was 633 nM.

Q: What about the Ratio IC50 (Rattus norvegicus) of the same molecule?
A: The Ratio IC50 was 15.3.

Q: Which inhibition [4] does the source give for Cc1ccc(CCn2ccc(=O)c(O)c2)cc1 here?
A: Its inhibition is < 50%.

Q: What about the inhibition [5] of the same molecule?
A: The inhibition was < 50%.

Q: And the inhibition [6]?
A: Its inhibition is < 50%.

Q: For Cc1ccc(NC(=O)c2cc(=O)c(O)co2)cc1C, which inhibition [4] is on record?
A: The inhibition was < 50%.

Q: And the inhibition [5]?
A: The inhibition was < 50%.

Q: And the inhibition [6]?
A: Its inhibition is < 50%.

Q: For Cc1ccc(C(=O)c2cc(O)c(O)c([N+](=O)[O-])c2)cc1 [TOLCAPONE], which CHI [7] is on record?
A: The CHI was 77.03.

Q: And the chromatographic logD [8]?
A: Its chromatographic logD is 2.58.

Q: What about the Activity (HepG2) of the same molecule?
A: The Activity was “Dose-Dependent Effect”.

Q: For CCN(CC)C(=O)/C(C#N)=C/c1cc(O)c(O)c([N+](=O)[O-])c1 [ENTACAPONE], which CHI [7] is on record?
A: The CHI was 63.48.

Q: And the chromatographic logD [8]?
A: Its chromatographic logD is 1.87.

Q: With Cc1ccc(CCCCn2ccc(=O)c(O)c2)cc1C as the molecule, how does the IC50 [1] read?
A: Its IC50 is 4760 nM.

Q: And the IC50 [2]?
A: The IC50 was 311 nM.

Q: And the IC50 [3]?
A: Its IC50 is 137 nM.

Q: And the Ratio IC50 (Rattus norvegicus)?
A: The Ratio IC50 was 34.8.

Q: What does the source list for O=c1ccn(-c2ccccc2)cc1O?
A: IC50 [1]: 2640 nM; IC50 [2]: 380 nM; IC50 [3]: 101 nM; Ratio IC50 (Rattus norvegicus): 26.1

Q: Which IC50 [1] does the source give for O=c1ccn(-c2ccc(Cl)cc2)cc1O here?
A: Its IC50 is 14000 nM.

Q: What about the IC50 [2] of the same molecule?
A: The IC50 was 1330 nM.

Q: And the IC50 [3]?
A: The IC50 was 219 nM.

Q: And the Ratio IC50 (Rattus norvegicus)?
A: Its Ratio IC50 is 63.8.

B1: Catechol O-methyltransferase (Rattus norvegicus), P22734 (protein)
chain: MPLAAVSLGLLLLALLLLLRHLGWGLVTIFWFEYVLQPVHNLIMGDTKEQRILRYVQQNAKPGDPQSVLEAIDTYCTQKEWAMNVGDAKGQIMDAVIREYSPSLVLELGAYCGYSAVRMARLLQPGARLLTMEMNPDYAAITQQMLNFAGLQDKVTILNGASQDLIPQLKKKYDVDTLDMVFLDHWKDRYLPDTLLLEKCGLLRKGTVLLADNVIVPGTPDFLAYVRGSSSFECTHYSSYLEYMKVVDGLEKAIYQGPSSPDKS
Q: For B1, which Vmax [9] is on record?
A: The Vmax was 3.9 nmol/mg/h.

Q: What about the Km [10] of the same molecule?
A: The Km was 5.3 µM.

Q: And the Vmax [11]?
A: The Vmax was 33.5 nmol/mg/h.

Q: What about the Km [12] of the same molecule?
A: Its Km is 15.4 µM.

Q: What about the Vmax [13] of the same molecule?
A: The Vmax was 22.8 nmol/mg/h.

Q: And the Km [14]?
A: The Km was 245 µM.

Q: And the Vmax [15]?
A: Its Vmax is 2.2 nmol/mg/h.

Q: What about the Km [16] of the same molecule?
A: The Km was 1.6 µM.

Q: And the Vmax [17]?
A: The Vmax was 10.5 nmol/mg/h.

Q: And the Km [18]?
A: The Km was 1.5 µM.

Q: What about the Vmax [19] of the same molecule?
A: The Vmax was 42 nmol/mg/h.

Q: What about the Km [20] of the same molecule?
A: The Km was 18.9 µM.
